{"source": "patent US9265810B2", "about": "“Pharmaceutical composition and methods for modulating immune system, preventing, pretreating and/or treating cancers” (Hong Kong Baptist University, priority 2013, dated 2016)", "system": "4T1 murine mammary cancer cells", "experimental": "In this example, the average body weight of mice is 20 g; and the doses of Taxol and RAP are 20 mg/kg, and 40 mg/kg, respectively.", "data": [{"smiles": "CC(=O)O[C@H]1C(=O)[C@@]2(C)[C@H]([C@H](OC(=O)c3ccccc3)[C@]3(O)C[C@H](OC(=O)[C@H](O)[C@@H](NC(=O)c4ccccc4)c4ccccc4)C(C)=C1C3(C)C)[C@]1(OC(C)=O)CO[C@@H]1C[C@@H]2O", "note": "[Taxol, paclitaxel]", "values": [{"measurement": "survival rate at Day 55", "setting": "Day 55", "result": 30, "unit": "%"}, {"measurement": "anticancer effect compared to control group", "setting": "RAP 40 mg/kg/day gavage since day 0, Taxol 20 mg/kg/week i.p. since day 17, tumor cells at day 7", "result": "significant anticancer effect"}, {"measurement": "death at day 50", "setting": "day 50, when all the mice of Control group died", "result": "no death occurred"}]}]}
